# Measured values taken from ChEMBL document CHEMBL5723585, “Data for DCP probe JNJ-54082730” (2024).
# Calls of active or inactive are those of the source. The rule behind the calls is not given here.
# Experiments:
# [1] = biological target: C-X-C chemokine receptor type 2 (Homo sapiens) (UniProt P25025); test: CXCR2 (IL-8B) Eurofins-Cerep binding assay; settings: filed as agonist, Compound concentration 10.0 uM
# [2] = biological target: cGMP-dependent 3',5'-cyclic phosphodiesterase (Homo sapiens, UniProt O00408); test: Scintillation proximity assay (PDE2A) ( Mean (95% Confidence Interval) = 0.8 -1 nM; Ki = 0.7 nM)
# [3] = biological target: cGMP-dependent 3',5'-cyclic phosphodiesterase (Rattus norvegicus) (UniProt Q01062); test: Target occupancy in striatum ( p.o.dose, 1 h); assay type: organism-based
# Chain of cGMP-dependent 3',5'-cyclic phosphodiesterase (Rattus norvegicus) (Q01062 whole entry): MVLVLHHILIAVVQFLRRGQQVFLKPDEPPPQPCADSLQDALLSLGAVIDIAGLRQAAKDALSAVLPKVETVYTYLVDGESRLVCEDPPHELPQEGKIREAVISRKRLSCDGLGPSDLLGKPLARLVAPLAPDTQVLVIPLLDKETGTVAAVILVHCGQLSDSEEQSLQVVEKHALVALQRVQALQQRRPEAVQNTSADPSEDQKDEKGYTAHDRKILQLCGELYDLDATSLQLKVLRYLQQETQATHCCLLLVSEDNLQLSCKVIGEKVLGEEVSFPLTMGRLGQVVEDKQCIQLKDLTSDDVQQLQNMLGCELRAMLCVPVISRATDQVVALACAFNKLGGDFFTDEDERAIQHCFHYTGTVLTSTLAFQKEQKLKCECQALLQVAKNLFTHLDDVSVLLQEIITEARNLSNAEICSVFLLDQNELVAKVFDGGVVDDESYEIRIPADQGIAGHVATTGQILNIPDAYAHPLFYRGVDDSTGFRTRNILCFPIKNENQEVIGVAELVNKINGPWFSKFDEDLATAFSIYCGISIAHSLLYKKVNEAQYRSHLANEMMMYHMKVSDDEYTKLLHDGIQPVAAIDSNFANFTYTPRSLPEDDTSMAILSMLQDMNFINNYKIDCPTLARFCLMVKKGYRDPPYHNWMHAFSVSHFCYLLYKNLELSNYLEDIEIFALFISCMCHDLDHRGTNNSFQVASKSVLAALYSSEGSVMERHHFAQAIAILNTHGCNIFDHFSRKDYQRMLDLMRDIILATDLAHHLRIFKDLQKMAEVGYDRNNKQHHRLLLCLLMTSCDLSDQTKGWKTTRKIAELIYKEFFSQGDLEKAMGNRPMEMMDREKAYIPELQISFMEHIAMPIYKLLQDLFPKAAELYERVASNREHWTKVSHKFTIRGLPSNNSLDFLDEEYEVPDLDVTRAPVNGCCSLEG
# Rattus norvegicus [4] = species: Rattus norvegicus; test: alpha 1 (non-selective) Eurofins-Cerep binding assay; assay type: protein assay; design: ligand concentration 0.25 nM; settings: filed as antagonist, Compound concentration 10.0 uM
# Rattus norvegicus [5] = species: Rattus norvegicus; test: alpha 2 (non-selective) Eurofins-Cerep binding assay; assay type: protein assay; design: ligand concentration 1 nM; settings: filed as antagonist, Compound concentration 10.0 uM
# [6] = biological target: B2 bradykinin receptor (Homo sapiens) (UniProt P30411); test: B2 Eurofins-Cerep binding assay; design: ligand concentration 0.3 nM; settings: filed as agonist, Compound concentration 10.0 uM
# Chain of B2 bradykinin receptor (Homo sapiens) (P30411 whole entry): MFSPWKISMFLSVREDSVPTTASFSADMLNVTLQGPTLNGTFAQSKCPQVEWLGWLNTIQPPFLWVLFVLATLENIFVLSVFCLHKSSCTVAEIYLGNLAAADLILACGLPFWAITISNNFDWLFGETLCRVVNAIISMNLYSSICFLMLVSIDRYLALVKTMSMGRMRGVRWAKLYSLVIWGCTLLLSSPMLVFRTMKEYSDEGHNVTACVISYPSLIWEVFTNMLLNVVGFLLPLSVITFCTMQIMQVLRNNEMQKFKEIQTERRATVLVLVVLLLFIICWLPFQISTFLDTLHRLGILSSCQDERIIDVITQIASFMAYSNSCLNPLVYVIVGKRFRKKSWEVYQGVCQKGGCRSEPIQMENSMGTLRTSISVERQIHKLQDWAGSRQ
# [7] = biological target: D(2) dopamine receptor (Homo sapiens) (UniProt P14416); test: D2S (h) Eurofins-Cerep binding assay; design: ligand concentration 0.3 nM; settings: filed as antagonist, Compound concentration 10.0 uM
# [8] = biological target: GABA-A receptor; anion channel (Rattus norvegicus) (UniProt O09028+P15431+P18506+P18508+P19969+P20236+P23574+P23576+P28471+P28473+P30191+P62813+P63079+P63138+Q91ZM7+Q9ES14); test: GABA (non-selective) Eurofins-Cerep binding assay; assay type: protein-complex assay; design: ligand concentration 10 nM; settings: filed as agonist, Compound concentration 10.0 uM
# [9] = biological target: Galanin receptor type 2 (Homo sapiens) (UniProt O43603); test: GAL2 Eurofins-Cerep binding assay; design: ligand concentration 0.05 nM; settings: filed as agonist, Compound concentration 10.0 uM
# Chain of Galanin receptor type 2 (Homo sapiens) (O43603 whole entry): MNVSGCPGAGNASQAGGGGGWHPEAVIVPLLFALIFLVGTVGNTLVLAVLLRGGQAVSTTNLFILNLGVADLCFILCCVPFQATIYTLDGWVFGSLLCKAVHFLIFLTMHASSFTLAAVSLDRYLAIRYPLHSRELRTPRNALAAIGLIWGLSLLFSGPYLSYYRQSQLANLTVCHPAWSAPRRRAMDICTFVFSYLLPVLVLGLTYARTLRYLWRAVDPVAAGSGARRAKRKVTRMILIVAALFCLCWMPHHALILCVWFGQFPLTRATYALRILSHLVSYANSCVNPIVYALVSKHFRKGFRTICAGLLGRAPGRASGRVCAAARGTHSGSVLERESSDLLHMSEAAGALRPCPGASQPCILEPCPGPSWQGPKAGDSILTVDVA
# [10] = biological target: C-C chemokine receptor type 1 (Homo sapiens) (UniProt P32246); test: CCR1 Eurofins-Cerep binding assay; design: ligand concentration 0.01 nM; settings: filed as agonist, Compound concentration 10.0 uM
# [11] = biological target: Substance-K receptor (Homo sapiens) (UniProt P21452); test: NK2 Eurofins-Cerep binding assay; design: ligand concentration 0.1 nM; settings: filed as agonist, Compound concentration 10.0 uM
# Chain of Substance-K receptor (Homo sapiens) (P21452 whole entry): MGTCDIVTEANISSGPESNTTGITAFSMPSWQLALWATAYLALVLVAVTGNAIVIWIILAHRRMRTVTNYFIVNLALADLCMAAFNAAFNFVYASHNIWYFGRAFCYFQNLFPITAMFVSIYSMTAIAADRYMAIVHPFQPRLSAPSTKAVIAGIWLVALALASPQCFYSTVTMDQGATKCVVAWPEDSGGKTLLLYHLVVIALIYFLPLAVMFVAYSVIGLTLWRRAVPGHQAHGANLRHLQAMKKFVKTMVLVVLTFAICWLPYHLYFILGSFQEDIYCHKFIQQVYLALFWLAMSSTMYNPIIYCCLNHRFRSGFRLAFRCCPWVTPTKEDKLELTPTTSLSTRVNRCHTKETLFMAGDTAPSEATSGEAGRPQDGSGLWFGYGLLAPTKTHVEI
# [12] = biological target: Neuromedin-K receptor (Homo sapiens) (UniProt P29371); test: NK3 Eurofins-Cerep binding assay; design: ligand concentration 0.4 nM; settings: filed as antagonist, Compound concentration 10.0 uM
# [13] = biological target: Neurotensin receptor type 1 (Homo sapiens) (UniProt P30989); test: NTS1 (NT1) Eurofins-Cerep binding assay; design: ligand concentration 0.05 nM; settings: filed as agonist, Compound concentration 10.0 uM
# Chain of Neurotensin receptor type 1 (Homo sapiens) (P30989 whole entry): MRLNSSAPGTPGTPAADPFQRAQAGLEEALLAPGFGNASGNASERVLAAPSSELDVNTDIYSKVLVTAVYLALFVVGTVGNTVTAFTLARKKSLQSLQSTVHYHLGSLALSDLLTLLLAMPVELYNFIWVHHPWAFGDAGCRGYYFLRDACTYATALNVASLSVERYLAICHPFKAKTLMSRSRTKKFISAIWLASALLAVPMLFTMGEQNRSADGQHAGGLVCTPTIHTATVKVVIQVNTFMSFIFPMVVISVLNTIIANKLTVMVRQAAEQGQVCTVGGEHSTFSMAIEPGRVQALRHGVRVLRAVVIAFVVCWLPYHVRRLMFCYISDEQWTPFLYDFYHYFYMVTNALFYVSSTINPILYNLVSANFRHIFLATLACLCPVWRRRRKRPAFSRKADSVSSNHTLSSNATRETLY
# [14] = biological target: Nociceptin receptor (Homo sapiens) (UniProt P41146); test: NOP (ORL1) Eurofins-Cerep binding assay; design: ligand concentration 0.06 nM; settings: filed as agonist, Compound concentration 10.0 uM
# [15] = biological target: 5-hydroxytryptamine receptor 2A (Homo sapiens) (UniProt P28223); test: 5-HT2A Eurofins-Cerep binding assay; design: ligand concentration 0.5 nM; settings: filed as antagonist, Compound concentration 10.0 uM
# [16] = biological target: 5-hydroxytryptamine receptor 5A (Homo sapiens) (UniProt P47898); test: 5-HT5a Eurofins-Cerep binding assay; design: ligand concentration 1.5 nM; settings: filed as agonist, Compound concentration 10.0 uM
# [17] = biological target: 5-hydroxytryptamine receptor 6 (Homo sapiens) (UniProt P50406); test: 5-HT6 Eurofins-Cerep binding assay; design: ligand concentration 2 nM; settings: filed as agonist, Compound concentration 10.0 uM
# Mus musculus = species: Mus musculus; test: sst (non-selective) Eurofins-Cerep binding assay; assay type: protein assay; design: ligand concentration 0.05 nM; settings: filed as agonist, Compound concentration 10.0 uM
# [18] = biological target: Vasoactive intestinal polypeptide receptor 1 (Homo sapiens) (UniProt P32241); test: VPAC1 (VIP1) Eurofins-Cerep binding assay; design: ligand concentration 0.04 nM; settings: filed as agonist, Compound concentration 10.0 uM
# Rattus norvegicus [19] = species: Rattus norvegicus; test: Ca2+ channel (L,verapamil site) (phenylalkylamine) Eurofins-Cerep binding assay; assay type: protein assay; design: ligand concentration 3 nM; settings: filed as antagonist, Compound concentration 10.0 uM
# Rattus norvegicus [20] = species: Rattus norvegicus; test: SKCa channel Eurofins-Cerep binding assay; assay type: protein assay; design: ligand concentration 0.007 nM; settings: filed as antagonist, Compound concentration 10.0 uM
# [21] = biological target: cAMP and cAMP-inhibited cGMP 3',5'-cyclic phosphodiesterase 10A (Homo sapiens, UniProt Q9Y233); test: IC50 of hPDE10A2 in the PDE screen at 1.0 µM
# Chain of cAMP and cAMP-inhibited cGMP 3',5'-cyclic phosphodiesterase 10A (Q9Y233 whole entry): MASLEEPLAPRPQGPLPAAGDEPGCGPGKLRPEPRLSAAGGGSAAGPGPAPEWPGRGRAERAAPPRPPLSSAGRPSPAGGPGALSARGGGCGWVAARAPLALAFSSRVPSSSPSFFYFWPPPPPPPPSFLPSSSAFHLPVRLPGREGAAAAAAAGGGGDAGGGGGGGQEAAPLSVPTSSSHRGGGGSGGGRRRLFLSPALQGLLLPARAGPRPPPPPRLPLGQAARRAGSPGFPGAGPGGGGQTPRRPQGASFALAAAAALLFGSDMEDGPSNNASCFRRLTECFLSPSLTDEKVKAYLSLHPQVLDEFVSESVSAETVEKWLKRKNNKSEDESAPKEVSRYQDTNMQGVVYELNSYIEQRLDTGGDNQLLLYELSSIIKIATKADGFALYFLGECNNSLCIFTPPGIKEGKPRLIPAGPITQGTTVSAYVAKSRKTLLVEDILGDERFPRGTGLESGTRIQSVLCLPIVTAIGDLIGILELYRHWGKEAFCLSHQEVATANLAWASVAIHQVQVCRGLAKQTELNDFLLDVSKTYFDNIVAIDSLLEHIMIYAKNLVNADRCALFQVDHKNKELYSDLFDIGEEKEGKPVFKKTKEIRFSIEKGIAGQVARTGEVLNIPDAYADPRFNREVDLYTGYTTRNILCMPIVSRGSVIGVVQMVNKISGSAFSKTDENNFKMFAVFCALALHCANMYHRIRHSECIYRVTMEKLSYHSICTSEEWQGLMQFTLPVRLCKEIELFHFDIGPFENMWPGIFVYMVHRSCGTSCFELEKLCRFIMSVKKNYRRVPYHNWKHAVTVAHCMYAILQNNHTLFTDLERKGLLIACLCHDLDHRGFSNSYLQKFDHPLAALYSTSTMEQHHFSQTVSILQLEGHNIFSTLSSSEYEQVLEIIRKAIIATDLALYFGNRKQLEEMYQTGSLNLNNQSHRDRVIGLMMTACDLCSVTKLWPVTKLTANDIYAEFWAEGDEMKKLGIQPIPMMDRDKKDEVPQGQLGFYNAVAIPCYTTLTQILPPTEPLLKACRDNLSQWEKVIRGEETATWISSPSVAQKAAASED
# Phosphodiesterase 3 = Phosphodiesterase 3 (Homo sapiens, UniProt Q14432+Q13370); test: IC50 of hPDE3 in the PDE screen at 1.0 µM; assay type: protein assay
# [22] = biological target: Dual specificity calcium/calmodulin-dependent 3',5'-cyclic nucleotide phosphodiesterase 1B (Homo sapiens, UniProt Q01064); test: IC50 of hPDE1B1 in the PDE screen at 1.0 µM
# Chain of Dual specificity calcium/calmodulin-dependent 3',5'-cyclic nucleotide phosphodiesterase 1B (Q01064 whole entry): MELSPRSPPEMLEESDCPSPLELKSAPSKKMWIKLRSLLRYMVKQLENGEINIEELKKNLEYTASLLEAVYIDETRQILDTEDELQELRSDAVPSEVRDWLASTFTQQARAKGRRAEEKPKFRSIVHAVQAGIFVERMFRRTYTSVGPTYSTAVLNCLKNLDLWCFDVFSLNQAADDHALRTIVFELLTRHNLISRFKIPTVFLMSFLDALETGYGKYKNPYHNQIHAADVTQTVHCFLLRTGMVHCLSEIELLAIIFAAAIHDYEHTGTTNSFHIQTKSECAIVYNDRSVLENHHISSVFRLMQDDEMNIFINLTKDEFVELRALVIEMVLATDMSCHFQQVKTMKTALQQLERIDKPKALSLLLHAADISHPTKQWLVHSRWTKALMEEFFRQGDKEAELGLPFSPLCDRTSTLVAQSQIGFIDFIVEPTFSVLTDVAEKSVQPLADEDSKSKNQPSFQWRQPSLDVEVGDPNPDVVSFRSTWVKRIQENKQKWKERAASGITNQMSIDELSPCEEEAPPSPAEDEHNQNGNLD
# [23] = biological target: 3',5'-cyclic-AMP phosphodiesterase 4D (Homo sapiens, UniProt Q08499); test: IC50 of hPDE4D3 in the PDE screen at 1.0 µM
# [24] = biological target: cGMP-specific 3',5'-cyclic phosphodiesterase (Homo sapiens, UniProt O76074); test: IC50 of hPDE5A3 in the PDE screen at 1.0 µM
# [25] = IC50 of bovine retina PDE6 in the PDE screen at 1.0 µM; design: species or system Bos taurus
# [26] = biological target: High affinity 3',5'-cyclic-AMP phosphodiesterase 7A (Homo sapiens, UniProt Q13946); test: IC50 of hPDE7A1 in the PDE screen at 1.0 µM
# [27] = biological target: High affinity cAMP-specific and IBMX-insensitive 3',5'-cyclic phosphodiesterase 8A (Homo sapiens, UniProt O60658); test: IC50 of hPDE8A1 in the PDE screen at 1.0 µM
# [28] = biological target: High affinity cGMP-specific 3',5'-cyclic phosphodiesterase 9A (Homo sapiens, UniProt O76083); test: IC50 of hPDE9A in the PDE screen at 1.0 µM
# Chain of High affinity cGMP-specific 3',5'-cyclic phosphodiesterase 9A (O76083 whole entry): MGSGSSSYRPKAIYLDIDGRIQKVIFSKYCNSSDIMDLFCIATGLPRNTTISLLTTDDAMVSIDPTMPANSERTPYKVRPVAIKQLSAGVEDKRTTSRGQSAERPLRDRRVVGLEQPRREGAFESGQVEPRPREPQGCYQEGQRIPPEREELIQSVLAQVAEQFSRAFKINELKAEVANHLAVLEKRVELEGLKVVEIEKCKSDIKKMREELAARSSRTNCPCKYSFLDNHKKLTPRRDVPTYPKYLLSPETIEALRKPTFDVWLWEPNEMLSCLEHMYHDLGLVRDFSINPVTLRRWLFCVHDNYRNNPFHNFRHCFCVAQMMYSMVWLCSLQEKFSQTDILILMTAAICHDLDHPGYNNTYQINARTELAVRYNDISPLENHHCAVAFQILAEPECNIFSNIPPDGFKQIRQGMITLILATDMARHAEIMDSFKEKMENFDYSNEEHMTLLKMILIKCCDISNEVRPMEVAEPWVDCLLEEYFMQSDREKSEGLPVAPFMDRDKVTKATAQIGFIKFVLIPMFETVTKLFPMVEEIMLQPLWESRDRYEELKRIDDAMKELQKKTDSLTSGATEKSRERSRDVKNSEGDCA
compound,measurement,setting,value
Cc1cc(C(=O)N2CC[C@@H](C)[C@H](c3cc(C(F)F)nc4ncnn34)C2)cc(C)n1,residual activity,[1],109%
same,IC50,[2],0.0009 µM (active)
same,ED50,[3],5.3 mg/kg
same,residual activity,Rattus norvegicus [4],104%
same,residual activity,Rattus norvegicus [5],104%
same,residual activity,[6],103%
same,residual activity,[7],104%
same,residual activity,[8],100%
same,residual activity,[9],94%
same,residual activity,[10],89.6%
same,residual activity,[11],102%
same,residual activity,[12],99.8%
same,residual activity,[13],111%
same,residual activity,[14],103%
same,residual activity,[15],108%
same,residual activity,[16],95.3%
same,residual activity,[17],100%
same,residual activity,Mus musculus,122%
same,residual activity,[18],111%
same,residual activity,Rattus norvegicus [19],96.6%
same,residual activity,Rattus norvegicus [20],101%
same,IC50,[21],0.099 µM (not active)
same,Ki,[21],0.03 µM
same,IC50,Phosphodiesterase 3,6.643 µM
same,Ki,Phosphodiesterase 3,3.32 µM
same,IC50,[22],> 10 µM (not active)
same,IC50,[23],> 10 µM (not active)
same,IC50,[24],> 10 µM (not active)
same,IC50,[25],> 10 µM (not active)
same,IC50,[26],> 10 µM (not active)
same,IC50,[27],> 10 µM (not active)
same,IC50,[28],> 10 µM (not active)
